From PubChem BioAssay (NCI) come the findings set out here.

Molecules are shown by their SMILES.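 In this assay, cells in 96-well plates receive the compound at five concentrations for 48 hours. Endpoints are linearly interpolated between the surrounding concentrations. TGI is the concentration that stops growth completely.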 Bounds are passed on as bounds.

Test in all cases: DTP human tumour cell line panel, 48 h
Assay [1] relates to MDA-N.
In assay [2] the test system is HS 578T breast.
For assay [3], the system named is ACHN renal.
Assay [4] concerns HCT-15 colon.
In assay [5] the test system is NCI-H522 lung.
For assay [6], the system named is SK-MEL-5 melanoma.
Assay [7] deals with BT-549 breast.
Assay [8] relates to SK-MEL-28 melanoma.
The subject of assay [9] is HOP-92 NSCLC.
For assay [10], the system named is NCI-H226 lung.
Assay [11] has as its system UO-31 renal.
In assay [12] the test system is HCT-116 colon.
Assay [13] concerns CAKI-1 renal.
Assay [14] has as its system A498 renal.

What is called TGI is the concentration at which net growth stops. The low end stands for more potent growth arrest, the high end for less potent growth arrest. For `Cc1cc(C)nc(NS(=O)(=O)c2ccc(NNC(=O)c3cccc4c(NNc5ccc(S(=O)(=O)Nc6nc(C)cc(C)n6)cc5)c5ccccc5nc34)cc2)n1`, the TGI was found to be 43.1 µM in [1]; 71.9 µM in assay [2]; 33.3 µM in assay [3]; 36.1 µM in assay [4]; 40.8 µM in [5]; 33 µM in assay [6]. Moreover, the concentration for total growth inhibition (TGI) is 71.4 µM in assay [7]; 48.7 µM in [8]; 70.3 µM in assay [9]; 55.9 µM in [10]; 51.1 µM in assay [11]; 48.2 µM in assay [12]. In addition, in assay [13], the total growth inhibition concentration (TGI) was 41.8 µM.

Take `CC1(C)O[C@H]2[C@@H]3N=C(c4ccccc4)O[C@@H]3C=C[C@H]2O1`: the TGI in assay [1] was over 100 µM; in assay [14], over 100 µM; in assay [3], over 100 µM; in assay [4], over 100 µM; in assay [5] it was 17.4 µM; in assay [6] it was over 100 µM. The total growth inhibition concentration (TGI) in assay [7], in [8], in [9], in assay [10], in assay [11] and in assay [12] was over 100 µM throughout. The TGI in assay [13] was over 100 µM.

For the compound `CNC(=O)c1n[nH]n(Cc2ccccc2)c1=S`, the TGI in [1], in assay [3], in assay [4], in assay [6], in [7] and in assay [8] was over 100 µM throughout. Also, the TGI in assay [10], in [11], in [12] and in assay [13] was over 100 µM in each case.

For `CCCN1CN(c2ccccc2)C2(CCN(CCCC(=O)c3ccc(F)cc3)CC2)C1=O`, the TGI in [1] was found to be 23 µM; in assay [2], 34.1 µM; in assay [14], 5.67 µM; in assay [3] it was 12.9 µM; in [4], 16.9 µM; in [5], 43.6 µM. The TGI in assay [6] turned out to be 4.84 µM; in assay [8] it was 34.3 µM; in assay [9], 8.98 µM; in [10] it was 22.3 µM; in assay [11], 30.2 µM; in assay [12] it was 8.75 µM. The total growth inhibition concentration (TGI) in [13] is 41.1 µM.

Turning to `Cn1c(=O)c2nc3nnc(C#N)c(N)n3c2n(C)c1=O`, the TGI in assay [1], in [14], in assay [3], in assay [4], in assay [5] and in [6] was over 100 µM each time. Moreover, the total growth inhibition concentration (TGI) in assay [7], in [8], in assay [9], in [10], in [11] and in assay [12] was over 100 µM throughout. The compound further registered a TGI in [13] of over 100 µM.

Take `CC(=O)N1CC[N+](C)(CCCCN2c3ccccc3Sc3cc(N=[N+]=[N-])ccc32)CC1`: the TGI in [1], in assay [2], in assay [14], in assay [3], in assay [4] and in assay [5] was over 100 µM throughout. Moreover, the total growth inhibition concentration (TGI) in assay [6], in [7], in [8], in assay [10], in assay [11] and in [12] was over 100 µM in each case. In assay [13], this compound returned a total growth inhibition concentration (TGI) of over 100 µM.

As to `CC(C)c1ccc2c(c1)C=C1OC(=O)[C@]3(C)CCC[C@@]2(C)C13` (stereo not given in full), the TGI in assay [1], in assay [2], in assay [3], in assay [4], in [5] and in assay [6] was over 100 µM each time. Also, the TGI in assay [7], in assay [8], in assay [10], in assay [11], in assay [12] and in assay [13] was over 100 µM each time.

On to `O=c1c[n+](-c2ccccc2)[nH]o1`, for which the TGI in assay [1], in [2], in [14], in [3], in [4] and in assay [6] was over 100 µM in each case. The TGI in [7], in assay [8], in [9], in [11], in assay [12] and in assay [13] was over 100 µM each time.

As to `C=CCOC(=O)CCCCCCCCCCCCCCCOC(=O)c1c(CCC[C@@H](C)O[Si](C)(C)C(C)(C)C)nc(=O)n2c1CC[C@H]2CC1(CC/C=C\[C@H](CC)O[Si](C(C)C)(C(C)C)C(C)C)OCCO1`, the TGI in assay [1] was over 100 µM; in [14], over 100 µM; in [3], over 100 µM; in assay [4], over 100 µM; in [5], over 100 µM; in assay [6], 46.8 µM. Moreover, the TGI in assay [7] is over 100 µM; in assay [8], over 100 µM; in assay [9] it was 41.9 µM; in [10], over 100 µM; in [11], 61.3 µM; in assay [12], over 100 µM. Moreover, the TGI in assay [13] was over 100 µM.

For the compound `Cc1cc(N(CCC#N)CCC#N)ccc1/C(N=Nc1ccccc1)=N\NC(=O)c1ccccc1`, the total growth inhibition concentration (TGI) was over 100 µM in assay [1]; 75.8 µM in assay [2]; 93.7 µM in assay [14]; 41.3 µM in [3]; 48 µM in assay [4]; 35.3 µM in assay [5]. Further, the TGI in assay [6] is over 100 µM; in assay [7] it was 77.4 µM; in assay [10], over 100 µM; in [11], 65.1 µM; in assay [12], over 100 µM; in [13], 72.6 µM.

As to `O=c1[nH]c(=O)n(C2OC(CO)C(O)C2O)cc1OCCc1ccccc1` (stereo not given), the TGI in [1], in assay [2], in assay [14], in [3], in [4] and in assay [5] was over 100 µM throughout. Moreover, the TGI in [6], in assay [8], in assay [9], in assay [10], in assay [12] and in [13] was over 100 µM in each case.

As for `O=C(Nc1ccccc1)Nn1c(-c2cccs2)nc2ccc(I)cc2c1=O`, the TGI in assay [1] is 74.6 µM; in [3], over 100 µM; in assay [4] it was over 100 µM; in assay [5], 44.7 µM; in assay [6], 40.7 µM; in assay [7], 39 µM. The total growth inhibition concentration (TGI) in assay [8] is 53.6 µM; in assay [9], 59.7 µM; in [10], over 100 µM; in assay [11] it was 80.3 µM; in assay [12] it was over 100 µM; in assay [13], 53.3 µM.

Turning to `O=c1c2ccccc2c2c1c1c3ccccc3c(=O)c1c1c3ccccc3c(=O)c21`, the concentration for total growth inhibition (TGI) in [1], in assay [2], in assay [14], in assay [3], in [4] and in assay [5] was over 100 µM in each case. The TGI in [6], in assay [7], in assay [8], in assay [10], in [11] and in [12] was over 100 µM throughout. The compound further yielded a TGI in assay [13] of over 100 µM.

For `CCn1c(-c2ccccc2)nc2c1C(=O)c1ccccc1C2=O`, the TGI is 36.9 µM in assay [1]; over 100 µM in assay [2]; 44.1 µM in [4]; 43 µM in [5]; 23.2 µM in [6]; 60.6 µM in [7]. The total growth inhibition concentration (TGI) is over 100 µM in assay [8], 82 µM in assay [9], 71.6 µM in assay [10] and 63.6 µM in assay [12].

For `COc1ccc(N=Nc2c(C)c(C#N)c(=S)n(C3OC(COC(C)=O)C(OC(C)=O)C(OC(C)=O)C3OC(C)=O)c2-c2ccccc2)cc1` (stereo not given), the concentration for total growth inhibition (TGI) in [1] is 22.9 µM; in assay [14] it was 7.09 µM; in assay [3], over 100 µM; in [4], 77.2 µM; in assay [7], 17.6 µM; in assay [8], 20.3 µM. In addition, the concentration for total growth inhibition (TGI) in assay [9] was found to be 7.83 µM; in assay [11], 94.7 µM; in assay [12], 15.6 µM; in assay [13] it was 21.3 µM.

With `O=C1N(CN2CCOCC2)CN(CN2CCOCC2)C(=O)N1Cc1ccccc1`, the TGI in [1] was 33.3 µM; in assay [14], over 100 µM; in [3], over 100 µM; in assay [4], 84.8 µM; in [5] it was 29 µM; in assay [6], 44.2 µM. Moreover, the concentration for total growth inhibition (TGI) is 57 µM in assay [7]; 34.8 µM in [8]; 73 µM in [9]; over 100 µM in assay [10]; 68.6 µM in assay [11]; 54.4 µM in [12]. The concentration for total growth inhibition (TGI) in [13] came to 92.8 µM.

Take `Cc1nc(N)c(N2CCN(Cc3ccccc3)CC2)c(=O)[nH]1`: the TGI in assay [1], in [2], in [14], in assay [3], in [4] and in assay [5] was over 100 µM throughout. Also, the TGI in assay [7], in assay [8], in assay [10], in [11] and in assay [12] was over 100 µM each time.

`O=c1oc2cc(O)ccc2cc1-c1nc2ccccc2s1`: the TGI in assay [1] is 49.9 µM; in [14], 51.1 µM; in assay [3] it was 52.4 µM; in assay [4], over 100 µM; in assay [6], 28.5 µM; in assay [7], 51 µM. The concentration for total growth inhibition (TGI) in assay [8] was over 100 µM; in assay [9] it was over 100 µM; in assay [11], 47.6 µM; in [12], 47 µM; in assay [13], 74.6 µM.

For the compound `O=C1/C(=C/c2ccc(Cl)cc2)N=C(c2ccccc2)N1C1Nc2cc3c(cc2S1)NC(N1C(=O)/C(=C/c2ccc(Cl)cc2)N=C1c1ccccc1)S3` (stereo not given), the TGI was over 100 µM in assay [1]; over 100 µM in assay [2]; over 100 µM in [14]; over 100 µM in assay [3]; over 100 µM in assay [4]; 63.3 µM in assay [5]. The TGI in assay [6], in [8], in [9], in assay [10], in [11] and in [12] was over 100 µM each time. Also, the TGI in [13] was over 100 µM.

On to `COC(=O)c1cc(-c2ccc(-c3ccc(O)cc3)cc2)cc(-c2ccc(-c3ccc(O)cc3)cc2)c1`, for which the TGI was determined as 23 µM in assay [1]; 34.7 µM in [14]; 27.3 µM in [3]; 20.8 µM in assay [4]; 8.66 µM in [5]; 30.7 µM in assay [6]. In addition, the TGI came to 26.6 µM in assay [7]; 25.7 µM in assay [8]; 20.9 µM in [9]; 32.6 µM in [10]; 23.6 µM in assay [11]; 17.9 µM in assay [12]. Further, in assay [13], the TGI came to 29.5 µM.

As for `O/N=C1/CCCCCC1NO` (stereo not given), the total growth inhibition concentration (TGI) in assay [1], in assay [2], in [3], in assay [4], in [6] and in assay [8] was over 100 µM throughout. The concentration for total growth inhibition (TGI) in assay [9], in assay [10], in assay [11], in assay [12] and in [13] was over 100 µM in each case.

Consider `O=c1oc2cccnc2n1CCN1CCN(c2ccc(Oc3ccccc3)cc2)CC1`, for which the TGI in [1], in assay [2], in assay [14], in assay [3], in assay [4] and in [5] was over 100 µM in each case. For the same compound, the concentration for total growth inhibition (TGI) in assay [6], in assay [8], in assay [9], in assay [11], in assay [12] and in [13] was over 100 µM each time.
